Assay [1] has as its system NCI-H1975. As to the kind of experiment: Induction of apoptosis in human NCI-H1975 cells assessed as early apoptotic cells at 10 uM after 48 hrs by annexin V/FITC-propidium iodide staining-based flow cytometric method ( Rvb = 6.09%). It is filed as functional.
The test system of assay [2] is NCI-H1975. As to the kind of experiment: Cell cycle arrest in human NCI-H1975 cells assessed as accumulation at G0/G1 phase at 5 uM after 24 hrs by propidium iodide staining-based flow cytometric analysis (reference value: 56.11%). It is filed as functional.

The structures appear in SMILES notation.

In ChEMBL document CHEMBL4152332, “Discovery and synthesis of novel magnolol derivatives with potent anticancer activity in non-small cell lung cancer” (Eur J Med Chem, 2018) one finds Activity data, which are given here for one compound.

Turning to `C=CCc1ccc(O)c(-c2cc(CC=C)cc(CN3CCC(N)CC3)c2O)c1`, the Activity was 10.1% in the assay with NCI-H1975 [1] and 62.26% in the assay with NCI-H1975 [2].
